The target in experiment [1] is T1, SF3b complexes (Homo sapiens, UniProt O75533+Q7RTV0).
T1 construct: endogenous in cells; host or cells: Nuclear extracts; A HeLa S3 extract preparation is described for the in vitro splicing assay
In words: Scintillation proximity assay (SPA) with [3H]-labelled pladienolide probe. In kind it is binding. The note with it: SF3B1 (WT); geometric mean; read-out: SPA-ATS GMean IC50 (nM) SF3B1 (WT). The essentials:
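SF3b complexes captured from nuclear extracts on anti-SF3B1 antibody SPA beads; test compounds pre-incubated 30 min before 2.5 nM [3H]-pladienolide probe added, then 30 min incubation. Bound probe read by scintillation; values from non-linear regression of concentration–response curves.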
(In general: In a scintillation proximity assay essentially only radioactivity close to the scintillant gives light.)

Experiment [2] concerns Panc 05.04 cells (SF3b K700E mutant). In words: Cell proliferation and viability, CellTiter-Glo, 72 hours. It is filed as cell-based. The note with it: PANC0504.1; for CTGlo-ATS Mean MinResponse % 72 h PANC0504.1: -100% = cidal, 0% = static, 100% = uninhibited growth; for GI50: geometric mean. The method, boiled down: (§1)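 ATP luminescence (CellTiter-Glo) was measured 72 h after treatment with compound at 10 μM–100 pM (11 points, half-log) in 0.1% DMSO. The Panc line was grown in RPMI-1640 plus insulin and 15% FBS, the other in 10% FBS. Data were normalised to time zero and vehicle controls, where −100% is cidal and 0% static.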

Experiment [3] relates to NCI-H1568 cells (high MCL1). The description is as above. In kind it is cell-based. The note with it: NCIH1568.1; for CTGlo-ATS Mean MinResponse % 72 h NCIH1568.1: -100% = cidal, 0% = static, 100% = uninhibited growth; for GI50: geometric mean. The method, boiled down:
as §1

The test system of experiment [4] is Ad2 variant pre-mRNAs spliced in HeLa S3 nuclear extracts. In words: In vitro splicing assay (IVS), RT-qPCR of spliced product. It is filed as biochemical. The note with it: for IC50: geometric mean; for Ratio Ad2.1/2.2: ratio of IVS IC50 Ad2.1 to Ad2.2. The method, boiled down: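 Read-out is one-step TaqMan RT-qPCR of spliced Ad2 mRNA with Ftz as reference, normalized to DMSO and fit by non-linear regression. Reactions held HeLa S3 nuclear extract, 2 ng Ad2-derived pre-mRNA and test compound, with 15 min preincubation. Splicing was started with ATP-containing activation buffer and run 90 min at 30 °C.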
For orientation: In qPCR the cycle at which signal appears reflects the starting amount.

Where [5] appears, read: Panc 05.04, read-out: CTGlo-ATS GMean GI50 (nM) 72 h PANC0504.1, 72 h.
Setting [6] is: NCI-H1568, read-out: CTGlo-ATS GMean GI50 (nM) 72 h NCIH1568.1, 72 h.
Where [7] appears, read: Ad2.1 pre-mRNA substrate, read-out: qPCR-IVS-ATS GMean IC50 (nM) Ad2.1.
[8] abbreviates: Ad2.2 pre-mRNA substrate, read-out: qPCR-IVS-ATS GMean IC50 (nM) Ad2.2.
The mark [9] stands for this setting: Panc 05.04, 72 h, read-out: CTGlo-ATS GMean GI50 (nM) 72 h PANC0504.1, 72 h.
The mark [10] stands for this setting: NCI-H1568, 72 h, read-out: CTGlo-ATS GMean GI50 (nM) 72 h NCIH1568.1, 72 h.

Structures are written as SMILES. Read-outs that look alike come from different tables or passages of the source. Where only a bound is given, the exact number is not on record here.

In the case of `C/C(=C\c1cc(F)cc(NS(=O)(=O)N(C)C)c1)[C@H]1OC(=O)C[C@H](O)CC[C@H](C)[C@@H](OC(=O)N2CCN(C)CC2)/C=C/[C@@H]1C` [Compound 248, [(2S,3S,4E,6R,7S,10R)-2-[(E)-1-[3-(dimethylsulfamoylamino)-5-fluorophenyl]prop-1-en-2-yl]-10-hydroxy-3,7-dimethyl-12-oxo-1-oxacyclododec-4-en-6-yl] 4-methylpiperazine-1-carboxylate], the half-maximal inhibitory concentration (IC50) was 6.62 nM in experiment [1], greater than 25000 nM in experiment [4] (setting [7]) and 76.4 nM in experiment [4] (setting [8]). Besides, the “CTGlo-ATS Mean MinResponse % 72 h PANC0504.1” value in experiment [2] (72 h) was −92.622%. For the same compound, the GI50 in experiment [2] (setting [5]) stood at 75.8 nM; in experiment [3] (setting [6]), 97 nM. Also, the “CTGlo-ATS Mean MinResponse % 72 h NCIH1568.1” value in experiment [3] (72 h) was −46.753%. In addition, the “Ratio Ad2.1/2.2” value in experiment [4] is 327.274.

Regarding `C/C(=C\c1cc(F)cc(NC(=O)CC2CC2)c1)[C@H]1OC(=O)C[C@H](O)CC[C@H](C)[C@@H](OC(=O)N2CCN(C)CC2)/C=C/[C@@H]1C` [Compound 250, [(2S,3S,4E,6R,7S,10R)-2-[(E)-1-[3-[(2-cyclopropylacetyl)amino]-5-fluorophenyl]prop-1-en-2-yl]-10-hydroxy-3,7-dimethyl-12-oxo-1-oxacyclododec-4-en-6-yl] 4-methylpiperazine-1-carboxylate], the IC50 came out at 3.63 nM in experiment [1], 2190 nM in experiment [4] (setting [7]) and 44.1 nM in experiment [4] (setting [8]). The “CTGlo-ATS Mean MinResponse % 72 h PANC0504.1” value in experiment [2] (72 h) is on record as −94.381%. Further, the 50% growth inhibitory concentration (GI50) turned out to be 23.1 nM in experiment [2] (setting [5]) and 15.6 nM in experiment [3] (setting [6]). In addition, the “CTGlo-ATS Mean MinResponse % 72 h NCIH1568.1” value in experiment [3] (72 h) is −58.677%. Besides, the “Ratio Ad2.1/2.2” value in experiment [4] was 49.517.

On to `CC(=O)N1CCC(n2nnc3c(F)cc(/C=C(\C)[C@H]4OC(=O)C[C@H](O)CC[C@H](C)[C@@H](OC(=O)N5CCNCC5)/C=C/[C@@H]4C)cc32)CC1` [Compound 253, [(2S,3S,4E,6R,7S,10R)-2-[(E)-1-[3-(1-acetylpiperidin-4-yl)-7-fluorobenzotriazol-5-yl]prop-1-en-2-yl]-10-hydroxy-3,7-dimethyl-12-oxo-1-oxacyclododec-4-en-6-yl] piperazine-1-carboxylate], for which the values for the half-inhibitory concentration (IC50) in experiment [1], in experiment [4] (setting [7]) and in experiment [4] (setting [8]) were 1.92 nM, 10 nM and 8.59 nM, respectively. Moreover, the “CTGlo-ATS Mean MinResponse % 72 h PANC0504.1” value in experiment [2] (72 h) is −80.763%. The results for the concentration for 50% growth inhibition (GI50) in experiment [2] (setting [9]) and in experiment [3] (setting [10]) were 12.9 nM and 2.42 nM, respectively. The “CTGlo-ATS Mean MinResponse % 72 h NCIH1568.1” value in experiment [3] (72 h) was −84.782%. Besides, in experiment [4], the “Ratio Ad2.1/2.2” value is given as 1.167.

Consider `C/C(=C\c1cccc(COC(=O)N2CC[C@@H](O)C2)c1)[C@H]1OC(=O)C[C@H](O)CC[C@H](C)[C@@H](OC(=O)N2CCN(C)CC2)/C=C/[C@@H]1C` [Compound 254, [(2S,3S,4E,6R,7S,10R)-10-hydroxy-2-[(E)-1-[3-[[(3R)-3-hydroxypyrrolidine-1-carbonyl]oxymethyl]phenyl]prop-1-en-2-yl]-3,7-dimethyl-12-oxo-1-oxacyclododec-4-en-6-yl] 4-methylpiperazine-1-carboxylate], for which the IC50 in experiment [1] is 5.12 nM; in experiment [4] (setting [7]), 22000 nM; in experiment [4] (setting [8]), 52.2 nM. For the same compound, the “CTGlo-ATS Mean MinResponse % 72 h PANC0504.1” value in experiment [2] (72 h) is recorded as −77.065%. Besides, the GI50 in experiment [2] (setting [9]) was determined as 29 nM; in experiment [3] (setting [10]) it was 23.7 nM. Also, in experiment [3] (72 h), the “CTGlo-ATS Mean MinResponse % 72 h NCIH1568.1” value is reported as −41.424%. The “Ratio Ad2.1/2.2” value in experiment [4] amounted to 422.058.

Consider `C/C(=C\c1cccc(COC(=O)N2CCOCC2)c1)[C@H]1OC(=O)C[C@H](O)CC[C@H](C)[C@@H](OC(=O)N2CCN(C)CC2)/C=C/[C@@H]1C` [Compound 257, [3-[(E)-2-[(2S,3S,4E,6R,7S,10R)-10-hydroxy-3,7-dimethyl-6-(4-methylpiperazine-1-carbonyl)oxy-12-oxo-1-oxacyclododec-4-en-2-yl]prop-1-enyl]phenyl]methyl morpholine-4-carboxylate], for which the 50% inhibitory concentration (IC50) in experiment [1] was 5.75 nM; in experiment [4] (setting [7]), greater than 25000 nM; in experiment [4] (setting [8]), 117 nM. In addition, the “CTGlo-ATS Mean MinResponse % 72 h PANC0504.1” value in experiment [2] (72 h) was −75.412%. The 50% growth inhibitory concentration (GI50) in experiment [2] (setting [9]) turned out to be 71.5 nM; in experiment [3] (setting [10]), 266 nM. For the same compound, in experiment [3] (72 h), the “CTGlo-ATS Mean MinResponse % 72 h NCIH1568.1” value is reported as −4.151%. The “Ratio Ad2.1/2.2” value in experiment [4] is 213.903.

Broadly, the IC50 is the midpoint of a concentration-inhibition curve. In general, GI50 refers to the concentration giving 50% growth inhibition.

(Values after patent US11679107B2 (Eisai R&D Management Co., Ltd., priority 2018, dated 2023).)
